Results taken from US9821002B2, “Method for alleviating radiation injury with isorhamnetin-3-O-β-D-glucoside” (Sinotai Oncology Associate., Ltd., priority 2015, dated 2017).

Key:
NMuMG cells = experiment: Apoptosis assay (FITC Annexin V/PI) after ultraviolet irradiation; type: cell-based, mouse; conditions: 2 h pretreatment, ultraviolet 30 mJ/cm^2, 24 hours, mean ± SEM
Protocol: (§1) Four groups of NMuMG cells (i.e., a normal control group referred to as Normal Control Group 1-A, an ultraviolet control group referred to as UV Control Group 1-A, and two experimental groups referred to as Experimental Groups 1-A to 2-A) and four groups of HaCaT cells (i.e., a normal control group referred to as Normal Control Group 1-B, an ultraviolet control group referred to as UV Control Group 1-B, and two experimental groups referred to as Experimental Groups 1-B to 2-B), were prepared based on the procedure set forth in “Source and cultivation of cell lines” of “Experimental materials”. The cells in each group were cultivated using 5 mL of a corresponding medium shown in Table 1 and a 6-cm Petri dish in an incubator (37° C., 5% CO2) for 24 hours. […]
(§2) Subsequently, the stained cells were analyzed using BD Accuri™ C6 flow cytometry, in which cells that could be stained with FITC Annexin V but not with PI (i.e., FITC Annexin V positive and PI negative) represented cells that were induced with early apoptosis; cells stained with both FITC Annexin V and PI (i.e., FITC Annexin V positive and PI positive) represented cells that were induced with late apoptosis; and cells that could not be stained with FITC Annexin V and PI (i.e., FITC Annexin V negative and PI negative) represented viable cells. […]

HaCaT cells = experiment: as above; type: cell-based, human; conditions: 2 h pretreatment, ultraviolet 50 mJ/cm^2, 48 hours, mean ± SEM
Protocol: as §1, §2

COc1cc(-c2oc3cc(O)cc(O)c3c(=O)c2O[C@@H]2O[C@H](CO)[C@@H](O)[C@H](O)[C@H]2O)ccc1O [isorhamnetin-3-O-β-D-glucoside]
Apoptosis percentage (NMuMG cells; 15 μM): 10.6 ± 2.8% | Apoptosis percentage (NMuMG cells; 30 μM): 10.5 ± 2.5 % | Apoptosis percentage (HaCaT cells; 50 μM): 26.13 ± 7.26 % | Apoptosis percentage (HaCaT cells; 100 μM): 23 ± 2.19 %
